ChEMBL document CHEMBL1201862, “PubChem BioAssay data set” (2004)
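Protocol summary: plate cells (96-well), add compound at 5 concentrations, incubate 48 h, interpolate endpoints linearly. The concentration for 50% growth inhibition is given as GI50.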 Activity calls are given as the source filed them. No stated cut-off is given here; in the data, active = GI50 up to about 1.1 µM and inactive = higher.

How the values were obtained:
Assay in all cases: DTP human tumour cell line panel, 48 h
[1] = test system: DLD-1
[2] = test system: HL-60
[3] = test system: M19-MEL
[4] = test system: MCF7
[5] = test system: NCI-H460
[6] = test system: NCI/ADR-RES
[7] = test system: OVCAR-8
[8] = test system: SF-539
[9] = test system: SNB-78
[10] = test system: BT-549
[11] = test system: Hs-578T
[12] = test system: M14
[13] = test system: MDA-MB-231
[14] = test system: MDA-MB-435
[15] = test system: MDA-N
[16] = test system: SR
[17] = test system: T47D
[18] = test system: TK-10

Row | SMILES | GI50 [1] | GI50 [2] | GI50 [3] | GI50 [4] | GI50 [5] | GI50 [6] | GI50 [7] | GI50 [8] | GI50 [9] | GI50 [10] | GI50 [11] | GI50 [12] | GI50 [13] | GI50 [14] | GI50 [15] | GI50 [16] | GI50 [17] | GI50 [18]
1 | Cc1c(N=NN(C)C)cc[n+]([O-])c1C | > 100 µM (inactive) | > 100 µM (inactive) | > 100 µM (inactive) | > 100 µM (inactive) | > 100 µM (inactive) | > 100 µM (inactive) | > 100 µM (inactive) | > 100 µM (inactive) | > 100 µM (inactive) | – | – | – | – | – | – | – | – | –
2 | C=C/C(C)=C/[C@H](C)C(=O)C[C@H](O)CC1CC(=O)NC(=O)C1 | 44.2 µM (inactive) | 20.3 µM (inactive) | 80.4 µM (inactive) | 27.5 µM (inactive) | 37.7 µM (inactive) | 57.4 µM (inactive) | 24.2 µM (inactive) | 35.1 µM (inactive) | 27.4 µM (inactive) | – | – | – | – | – | – | – | – | –
3 | O=c1cnn(C2OC(CO)C(O)C2O)c(=S)[nH]1 (stereo unspecified) | 8.47 µM (inactive) | 2.05 µM (inactive) | 43.1 µM (inactive) | 10.6 µM (inactive) | 0.316 µM (active) | > 79.3 µM (inactive) | 10.6 µM (inactive) | 66.5 µM (inactive) | > 91.2 µM (inactive) | > 100 µM (inactive) | > 100 µM (inactive) | > 100 µM (inactive) | > 100 µM (inactive) | > 100 µM (inactive) | > 100 µM (inactive) | 1.02 µM (active) | > 100 µM (inactive) | > 100 µM (inactive)
4 | C#CC[C@@]12CC(=O)C[C@@H]1CCC1(C2)OCCO1.C#CC[C@]12CC(=O)CC[C@H]1CC(=O)C2 | > 100 µM (inactive) | 29.1 µM (inactive) | > 100 µM (inactive) | > 100 µM (inactive) | > 100 µM (inactive) | > 100 µM (inactive) | > 100 µM (inactive) | > 100 µM (inactive) | > 100 µM (inactive) | – | – | – | – | – | – | – | – | –
5 | CSc1nc2c(ncn2C2OCC(O)C(O)C2O)c(=O)n1C (stereo unspecified) | > 100 µM (inactive) | > 100 µM (inactive) | > 100 µM (inactive) | > 100 µM (inactive) | > 100 µM (inactive) | > 100 µM (inactive) | > 100 µM (inactive) | > 100 µM (inactive) | > 100 µM (inactive) | – | – | – | – | – | – | – | – | –
6 | COc1cc(C2c3cc4c(cc3[C@@H](Nc3cccc(C(C)=O)c3)C3COC(=O)[C@H]23)OCO4)cc(OC)c1O (stereo partly specified) | 1.37 µM (inactive) | < 0.0327 µM (active) | 0.897 µM (active) | 0.0785 µM (active) | < 0.01 µM (active) | 0.383 µM (active) | 0.968 µM (active) | 0.243 µM (active) | 2.75 µM (inactive) | – | – | – | – | – | – | – | – | –
7 | CN(C(=O)c1ccc(OCCCC(=O)O)c(Cl)c1Cl)C1CCCC1 | > 100 µM (inactive) | > 72.8 µM (inactive) | > 100 µM (inactive) | > 100 µM (inactive) | > 95.3 µM (inactive) | > 100 µM (inactive) | > 100 µM (inactive) | > 100 µM (inactive) | > 100 µM (inactive) | – | – | – | – | – | – | – | – | –
8 | COc1ccc2cc1Oc1ccc(cc1)C[C@H]1c3cc(c(OC)cc3CCN1C)Oc1c(O)c(OC)cc3c1[C@H](C2)N(C)CC3 [FANGCHINOLINE] | 23.4 µM (inactive) | 14 µM (inactive) | 22.6 µM (inactive) | 26.6 µM (inactive) | 21.8 µM (inactive) | 29.4 µM (inactive) | 5.25 µM (inactive) | 20.3 µM (inactive) | 40.7 µM (inactive) | – | – | – | – | – | – | – | – | –
